{"source": "patent US6559281B1", "about": "“Non-naturally occurring synthetic lytic peptides” (priority 1993, dated 2003)", "key": {"Staphylococcus aureus": {"tested_on": "Staphylococcus aureus", "test": "In vitro lysis of pathogenic bacteria (lytic peptide bioassay, colony count of survivors)", "format": "cell-based", "conditions": "clinical isolate, 37° C. for one hour; for # of Survivors: minus peptide control 50,000; for % of Control: survivors", "description": "(§1) In this test, antibiotic resistant clinical isolates of Pseudomonas aeruginosa and Staphylococcus aureus were obtained. The lytic peptide bioassay was performed as described below.\n(§2) A flask containing 49 ml of nutrient broth was inoculated with 1 ml of an overnight culture of the test bacteria. The culture was allowed to grow to mid-log phase at 37° C. with shaking (approximately 4 hours). When the cells reached the correct density, the cells were transferred to a sterile tube and centrifuged for 10 minutes at 3000 rpm. The pellet was resuspended in 3 ml of phosphate buffer and centrifuged for 10 minutes at 3000 rpm. The pellet was resuspended once again in sufficient (but measured) volume to calculate the absorbance of the suspension at 600 nm. Using the resulting absorbance and a previously constructed growth curve, the required dilution to achieve a concentration of 10^6 cells/ml was determined.\n(§3) The test culture tubes for the bioassay contained 800 μl of phosphate buffer, pH 7.0, 100 μl of cells at 10^6 cells/ml and 100 μl of peptide solution (10 μM to 1 mM). The final concentration of peptide in the assay was from 1 μM to 100 μM. A reaction system minus peptide was included as a control. The tubes were incubated at 37° C. for one hour.\n(§4) After the incubation period two 1:10 serial dilutions in phosphate buffer were made for each culture(three 1:10 serial dilutions for the control culture). […] of each dilution was spread on a nutrient agar plate, in duplicate and incubated overnight at 37° C. The following day, the number of colonies on the control plates was counted to determine the starting number of cells in the assay tubes. The number of cells surviving the assay in the presence of peptide was also counted."}, "Pseudomonas aeruginosa": {"tested_on": "Pseudomonas aeruginosa", "format": "cell-based", "conditions": "clinical isolate, 37° C. for one hour; for # of Survivors: minus peptide control 100,000; for % of Control: survivors", "description": "as §1, §2, §3, §4"}}, "note": "Read-outs that look alike come from different tables or passages of the source.", "data": [{"substance": "Ala Val Lys Arg Val Gly Arg Arg Leu Lys Lys Leu Ala Arg Lys Iso Ala Arg Leu Gly Val Ala Phe [SEQ ID NO. 14]", "values": [{"measurement": "# of Survivors", "setting": "Staphylococcus aureus; peptide 1 μM", "value": "50,000"}, {"measurement": "# of Survivors", "setting": "Staphylococcus aureus; peptide 10 μM", "value": "2,299"}, {"measurement": "% of Control", "setting": "Staphylococcus aureus; peptide 1 μM", "value": 100, "unit": "%"}, {"measurement": "% of Control", "setting": "Staphylococcus aureus; peptide 10 μM", "value": 4.6, "unit": "%"}, {"measurement": "# of Survivors", "setting": "Pseudomonas aeruginosa; peptide 1 μM", "value": "100,000"}, {"measurement": "# of Survivors", "setting": "Pseudomonas aeruginosa; peptide 10 μM", "value": 2}, {"measurement": "% of Control", "setting": "Pseudomonas aeruginosa; peptide 1 μM", "value": 100, "unit": "%"}, {"measurement": "% of Control", "setting": "Pseudomonas aeruginosa; peptide 10 μM", "value": 0.002, "unit": "%"}]}]}
